The experiment concerns immortalized Fuchs' endothelial corneal dystrophy cells. Briefly: Concentration-dependent caspase 3/7 activity under TGF-β2 stimulation (Example 3). The settings on record: Homo sapiens, TGF-β2 10 ng/mL, 28 hours; for activity at 0.01 µM: agent 10 nM; for activity at 0.1 µM: agent 100 nM; for activity at 1 µM: agent 1 μM; for activity at 10 µM: agent 10 μM; for activity at 0.001 µM: agent 1 nM. The format is cell-based. On the procedure:
7×10^3 immortalized Fuchs' endothelial corneal dystrophy cells were seeded on a 96-well plate and were cultured for 24 hours under the condition of 5% CO2 at 37° C.
After 28 hours under the condition of 5% CO2 at 37° C., cell morphology was observed using a phase difference microscope. Caspase 3/7 activity was then measured using Caspase-Glo 3/7 Assay (Promega, #G8091). DMEM+2% FBS+1% P/S was used as the medium. Caspase 3/7 activity and cell viability in this example were measured using GloMax-Multi Detection System (Promega, E7051).
Caspase 3/7 activity below 80% was used as a indicator indicating whether an agent can be used for treating or preventing a corneal endothelial condition, disorder, or disease, or whether an agent can be used as a caspase inhibitor (the underlines in FIG. 4A-1, FIG. 4A-2 and FIG. 4A-3, and FIG. 4B-1, FIG. 4B-2 and FIG. 4B-3).

SMILES strings stand for the structures. Where a name gives a salt, the structure may show the parent alone.

In turn, `CC1(C)O[C@@H]2C[C@H]3[C@@H]4C[C@H](F)C5=CC(=O)CC[C@]5(C)[C@H]4[C@@H](O)C[C@]3(C)[C@]2(C(=O)CO)O1` [Flurandrenolide] displayed an activity at 0.01 µM of at most 80%, an activity at 0.1 µM of at most 80%, an activity at 1 µM of at most 80% and an activity at 10 µM of at most 80%.

`CC(=O)OCC(=O)[C@@]12OC3(CCCC3)O[C@@H]1C[C@H]1[C@@H]3CCC4=CC(=O)C=C[C@]4(C)[C@@]3(F)[C@@H](O)C[C@@]12C` [Amcinonide] gave an activity at 0.01 µM of at most 80%, an activity at 0.1 µM of at most 80%, an activity at 1 µM of at most 80% and an activity at 10 µM of at most 80%.

On to `O=C(O)c1ccc(-n2nc(-c3ccccc3O)nc2-c2ccccc2O)cc1` [Deferasirox], for which the activity at 10 µM was at most 80%.

`CC1(C)O[C@@H]2C[C@H]3[C@@H]4CCC5=CC(=O)C=C[C@]5(C)[C@@]4(F)[C@@H](O)C[C@]3(C)[C@]2(C(=O)CO)O1` [Triamcinolone Acetonide] registered an activity at 0.01 µM of at most 80%, an activity at 0.1 µM of at most 80%, an activity at 1 µM of at most 80% and an activity at 10 µM of at most 80%.

`C[C@@H]1C[C@H]2[C@@H]3CCC4=CC(=O)C=C[C@]4(C)[C@@]3(Cl)[C@@H](O)C[C@]2(C)[C@@]1(OC(=O)c1ccco1)C(=O)CCl` [Mometasone Furoate] displayed an activity at 0.01 µM of at most 80%, an activity at 0.1 µM of at most 80%, an activity at 1 µM of at most 80% and an activity at 10 µM of at most 80%.

Consider `C=C1/C(=C\C=C2/CCC[C@]3(C)[C@@H]([C@H](C)CCCC(C)(C)O)CC[C@@H]23)C[C@@H](O)C[C@@H]1O` [Calcitriol], for which the activity at 10 µM is at most 80%.

The molecule `CCCC1O[C@@H]2C[C@H]3[C@@H]4CCC5=CC(=O)C=C[C@]5(C)[C@H]4[C@@H](O)C[C@]3(C)[C@]2(C(=O)CO)O1` (some centres unmarked) [Budesonide] registered an activity at 0.001 µM of at most 80%, an activity at 0.01 µM of at most 80%, an activity at 0.1 µM of at most 80% and an activity at 1 µM of at most 80%. Besides, the activity at 10 µM is at most 80%.

`CC(=O)[C@@]1(O)CC[C@H]2[C@@H]3C[C@H](C)C4=CC(=O)C=C[C@]4(C)[C@@]3(F)[C@@H](O)C[C@@]21C` [Fluorometholone] returned an activity at 0.1 µM of at most 80%, an activity at 1 µM of at most 80% and an activity at 10 µM of at most 80%.

`C[C@]12CC[C@@H]3c4ccc(O)cc4C[C@@H](CCCCCCCCC[S+]([O-])CCCC(F)(F)C(F)(F)F)[C@H]3[C@@H]1CC[C@@H]2O` (some centres unmarked) [Fulvestrant] gave an activity at 0.01 µM of at most 80%, an activity at 0.1 µM of at most 80%, an activity at 1 µM of at most 80% and an activity at 10 µM of at most 80%.

Molecule `CC(=O)N1CCN(c2ccc(OCC3COC(Cn4ccnc4)(c4ccc(Cl)cc4Cl)O3)cc2)CC1` (centres unmarked) [Ketoconazole] gave an activity at 10 µM of at most 80%.

In turn, `Cc1ccc(O)c([C@H](CCN(C(C)C)C(C)C)c2ccccc2)c1` [Tolterodine Tartrate] had an activity at 0.001 µM of at most 80%, an activity at 0.01 µM of at most 80%, an activity at 1 µM of at most 80% and an activity at 10 µM of at most 80%.

As for `COc1ccccc1OCCNCC(O)COc1cccc2[nH]c3ccccc3c12` (centres unmarked) [Carvedilol], the activity at 10 µM was at most 80%.

The molecule `CC1(C)O[C@@H]2C[C@H]3[C@@H]4CCC5=CC(=O)CC[C@]5(C)[C@@]4(F)[C@@H](O)C[C@]3(C)[C@]2(C(=O)CCl)O1` [Halcinonide] showed an activity at 0.01 µM of at most 80%, an activity at 0.1 µM of at most 80%, an activity at 1 µM of at most 80% and an activity at 10 µM of at most 80%.

In turn, `CO[C@H]1/C=C/O[C@@]2(C)Oc3c(C)c(O)c4c(O)c(c(/C=N/N5CCN(C6CCCC6)CC5)c(O)c4c3C2=O)NC(=O)/C(C)=C\C=C\[C@H](C)[C@H](O)[C@@H](C)[C@@H](O)[C@@H](C)[C@H](OC(C)=O)[C@@H]1C` [Rifapentine] came in with an activity at 1 µM of at most 80%.

In turn, `O=C1CCc2ccc(OCCCCN3CCN(c4cccc(Cl)c4Cl)CC3)cc2N1` [Aripiprazole] had an activity at 10 µM of at most 80%.

Molecule `C[C@H]1C[C@H]2[C@@H]3CCC4=CC(=O)C=C[C@]4(C)[C@@]3(F)[C@@H](O)C[C@]2(C)[C@@]1(O)C(=O)CO` [Betamethasone] gave an activity at 0.1 µM of at most 80%, an activity at 1 µM of at most 80% and an activity at 10 µM of at most 80%.

On to `C[C@@H]1C[C@H]2[C@@H]3CCC4=CC(=O)C=C[C@]4(C)[C@@]3(F)[C@@H](O)C[C@]2(C)[C@H]1C(=O)CO` [Desoximetasone], for which the activity at 0.01 µM is at most 80%, the activity at 0.1 µM is at most 80%, the activity at 1 µM was at most 80% and the activity at 10 µM was at most 80%.

`CC(=O)OCC(=O)[C@@]1(O)CC[C@H]2[C@@H]3CCC4=CC(=O)CC[C@]4(C)[C@@]3(F)[C@@H](O)C[C@@]21C` [Fludrocortisone Acetate] gave an activity at 0.1 µM of at most 80%, an activity at 1 µM of at most 80% and an activity at 10 µM of at most 80%.

As to `CC1(C)O[C@@H]2C[C@H]3[C@@H]4CCC5=CC(=O)C=C[C@]5(C)[C@H]4[C@@H](O)C[C@]3(C)[C@]2(C(=O)CO)O1` [Desonide], the activity at 0.1 µM is at most 80%, the activity at 1 µM is at most 80% and the activity at 10 µM was at most 80%.

Molecule `CC(=O)Oc1ccccc1C(=O)Nc1ncc([N+](=O)[O-])s1` [Nitazoxanide] displayed an activity at 10 µM of at most 80%.

In the case of `CCc1nc(N)nc(N)c1-c1ccc(Cl)cc1` [Pyrimethamine], the activity at 10 µM was at most 80%.

For the molecule `CO[C@H]1C[C@@H]2CC[C@@H](C)[C@@](O)(O2)C(=O)C(=O)N2CCCC[C@H]2C(=O)O[C@H]([C@H](C)C[C@@H]2CC[C@@H](OCCO)[C@H](OC)C2)CC(=O)[C@H](C)/C=C(\C)[C@@H](O)[C@@H](OC)C(=O)[C@H](C)C[C@H](C)/C=C/C=C/C=C/1C` [Everolimus], the activity at 0.01 µM is at most 80%, the activity at 0.1 µM was at most 80%, the activity at 1 µM was at most 80% and the activity at 10 µM is at most 80%.

`COc1c(C)c2c(c(O)c1C/C=C(\C)CCC(=O)OCCN1CCOCC1)C(=O)OC2` [Mycophenolate Mofetil] registered an activity at 0.01 µM of at most 80%, an activity at 0.1 µM of at most 80%, an activity at 1 µM of at most 80% and an activity at 10 µM of at most 80%.

The molecule `CC(C)C[C@H]1C(=O)N2CCC[C@H]2[C@]2(O)O[C@](NC(=O)[C@@H]3C=C4c5cccc6[nH]c(Br)c(c56)C[C@H]4N(C)C3)(C(C)C)C(=O)N12` [Bromocriptine Mesylate] registered an activity at 10 µM of at most 80%.

`C[C@H]1C[C@@H]2[C@H]([C@@H](O)C[C@@]3(C)[C@H]2CC[C@]3(O)C(=O)CO)[C@@]2(C)C=CC(=O)C=C12` [Methylprednisolone] displayed an activity at 0.1 µM of at most 80%, an activity at 1 µM of at most 80% and an activity at 10 µM of at most 80%.

On to `CCCC(=O)O[C@]1(C(=O)COC(C)=O)CC[C@H]2[C@@H]3C[C@H](F)C4=CC(=O)C=C[C@]4(C)[C@@]3(F)[C@@H](O)C[C@@]21C` [Difluprednate], for which the activity at 0.001 µM was at most 80%, the activity at 0.01 µM is at most 80%, the activity at 0.1 µM is at most 80% and the activity at 1 µM was at most 80%. Besides, the activity at 10 µM is at most 80%.

With `CC1(C)O[C@@H]2C[C@H]3[C@@H]4C[C@H](F)C5=CC(=O)C=C[C@]5(C)[C@@]4(F)[C@@H](O)C[C@]3(C)[C@]2(C(=O)CO)O1` [Fluocinolone Acetonide], the activity at 0.01 µM was at most 80%, the activity at 0.1 µM was at most 80%, the activity at 1 µM was at most 80% and the activity at 10 µM is at most 80%. The same molecule came in with an activity at 10 pM (agent 10 pM) of at most 80%.

On to `CN1CC2c3ccccc3Oc3ccc(Cl)cc3C2C1` (centres unmarked) [Asenapine Maleate], for which the activity at 10 µM is at most 80%.

Turning to `CCC(=O)O[C@]1(C(=O)CCl)[C@@H](C)C[C@H]2[C@@H]3CCC4=CC(=O)C=C[C@]4(C)[C@@]3(F)[C@@H](O)C[C@@]21C` [Clobetasol Propionate], the activity at 0.01 µM is at most 80%, the activity at 0.1 µM is at most 80%, the activity at 1 µM was at most 80% and the activity at 10 µM is at most 80%. The molecule also showed an activity at 1 pM (agent 1 pM) of at most 80%.

Take `CN1C[C@H](C(=O)N[C@]2(C)O[C@@]3(O)[C@@H]4CCCN4C(=O)[C@H](Cc4ccccc4)N3C2=O)C[C@@H]2c3cccc4[nH]cc(c34)C[C@H]21` [Dihydroergotamine Mesylate]: the activity at 10 µM was at most 80%.

On to `COc1c(C)c2c(c(O)c1C/C=C(\C)CCC(=O)O)C(=O)OC2` [Mycophenolic Acid], for which the activity at 0.01 µM was at most 80%, the activity at 0.1 µM is at most 80%, the activity at 1 µM was at most 80% and the activity at 10 µM was at most 80%.

In turn, `C[C@@H]1C[C@H]2[C@@H]3CCC4=CC(=O)C=C[C@]4(C)[C@@]3(F)[C@@H](O)C[C@]2(C)[C@@]1(O)C(=O)CO` [Dexamethasone] displayed an activity at 0.01 µM of at most 80%, an activity at 0.1 µM of at most 80%, an activity at 1 µM of at most 80% and an activity at 10 µM of at most 80%.

For the molecule `COC(=O)C1=C(C)NC(C)=C(C(=O)OCC(C)C)C1c1ccccc1[N+](=O)[O-]` (centres unmarked) [Nisoldipine], the activity at 10 µM is at most 80%.

Source of the values: patent US20200121652A1, “COMPOUNDS HAVING CASPASE INHIBITORY ACTIVITY, PHARMACEUTICAL AGENT CONTAINING SAID COMPOUNDS AND FOR TREATING OR PREVENTING CORNEAL ENDOTHELIAL SYMPTOMS, DISORDERS, OR DISEASES, AND APPLICATION OF SAID PHARMACEUTICAL AGENT” (The Doshisha, priority 2017, published 2020).
